From ChEMBL document CHEMBL2331210, “New 2-benzylsulfanyl-nicotinic acid based 1,3,4-oxadiazoles: their synthesis and biological evaluation” (2013)
Converted amounts (≈) assume the structure as drawn.

Assays:
NCI-H522 = experiment: Antitumor activity against human NCI-H522 cells assessed as cell growth at 0.1 uM; type: functional; details: read-out: Activity
Aspergillus niger = experiment: Antimicrobial activity against Aspergillus niger MTCC 282 assessed as growth inhibition measured after overnight incubation by broth dilution method; type: functional
SNB-19 = experiment: Antitumor activity against human SNB19 cells assessed as cell growth at 0.1 uM; type: functional; details: read-out: Activity
M14 = experiment: Antitumor activity against human M14 cells assessed as cell growth at 0.1 uM; type: functional; details: read-out: Activity
CCRF-CEM = experiment: Antitumor activity against human CCRF-CEM cells assessed as cell growth at 0.1 uM; type: functional; details: read-out: Activity
SK-MEL-5 = experiment: Antitumor activity against human SK-MEL-5 cells assessed as cell growth at 0.1 uM; type: functional; details: read-out: Activity
RPMI-8226 = experiment: Antitumor activity against human RPMI8226 cells assessed as cell growth at 0.1 uM; type: functional; details: read-out: Activity
HL-60 = experiment: Antitumor activity against human HL60(TB) cells assessed as cell growth at 0.1 uM; type: functional; details: read-out: Activity
A549 = experiment: Antitumor activity against human A549/ATCC cells assessed as cell growth at 0.1 uM; type: functional; details: read-out: Activity
Escherichia coli = experiment: Antimicrobial activity against Escherichia coli MTCC 443 assessed as growth inhibition measured after overnight incubation by broth dilution method; type: functional
T47D = experiment: Antitumor activity against human T47D cells assessed as cell growth at 0.1 uM; type: functional; details: read-out: Activity
PC-3 = experiment: Antitumor activity against human PC3 cells assessed as cell growth at 0.1 uM; type: functional; details: read-out: Activity
SW-620 = experiment: Antitumor activity against human SW620 cells assessed as cell growth at 0.1 uM; type: functional; details: read-out: Activity
SK-MEL-28 = experiment: Antitumor activity against human SK-MEL-28 cells assessed as cell growth at 0.1 uM; type: functional; details: read-out: Activity
NCI-H226 = experiment: Antitumor activity against human NCI-H226 cells assessed as cell growth at 0.1 uM; type: functional; details: read-out: Activity
SN12C = experiment: Antitumor activity against human SN12C cells assessed as cell growth at 0.1 uM; type: functional; details: read-out: Activity
MCF7 = experiment: Antitumor activity against human MCF7 cells assessed as cell growth at 0.1 uM; type: functional; details: read-out: Activity
SF-295 = experiment: Antitumor activity against human SF295 cells assessed as cell growth at 0.1 uM; type: functional; details: read-out: Activity
Candida albicans = experiment: Antimicrobial activity against Candida albicans MTCC 227 assessed as growth inhibition measured after overnight incubation by broth dilution method; type: functional
UO-31 = experiment: Antitumor activity against human UO31 cells assessed as cell growth at 0.1 uM; type: functional; details: read-out: Activity
SK-OV-3 = experiment: Antitumor activity against human SKOV3 cells assessed as cell growth at 0.1 uM; type: functional; details: read-out: Activity
MDA-MB-468 = experiment: Antitumor activity against human MDA-MB-468 cells assessed as cell growth at 0.1 uM; type: functional; details: read-out: Activity
MOLT-4 = experiment: Antitumor activity against human MOLT4 cells assessed as cell growth at 0.1 uM; type: functional; details: read-out: Activity
MDA-MB-231 = experiment: Antitumor activity against human MDA-MB-231/ATCC cells assessed as cell growth at 0.1 uM; type: functional; details: read-out: Activity
SNB-75 = experiment: Antitumor activity against human SNB75 cells assessed as cell growth at 0.1 uM; type: functional; details: read-out: Activity
NCI-H460 = experiment: Antitumor activity against human NCI-H460 cells assessed as cell growth at 0.1 uM; type: functional; details: read-out: Activity
SF-268 = experiment: Antitumor activity against human SF268 cells assessed as cell growth at 0.1 uM; type: functional; details: read-out: Activity
UACC-62 = experiment: Antitumor activity against human UACC62 cells assessed as cell growth at 0.1 uM; type: functional; details: read-out: Activity
A498 = experiment: Antitumor activity against human A498 cells assessed as cell growth at 0.1 uM; type: functional; details: read-out: Activity
OVCAR-4 = experiment: Antitumor activity against human OVCAR4 cells assessed as cell growth at 0.1 uM; type: functional; details: read-out: Activity
OVCAR-3 = experiment: Antitumor activity against human OVCAR3 cells assessed as cell growth at 0.1 uM; type: functional; details: read-out: Activity
ACHN = experiment: Antitumor activity against human ACHN cells assessed as cell growth at 0.1 uM; type: functional; details: read-out: Activity
MDA-MB-435 = experiment: Antitumor activity against human MDA-MB-435 cells assessed as cell growth at 0.1 uM; type: functional; details: read-out: Activity
CAKI-1 = experiment: Antitumor activity against human CAKI-1 cells assessed as cell growth at 0.1 uM; type: functional; details: read-out: Activity
Pseudomonas aeruginosa = experiment: Antimicrobial activity against Pseudomonas aeruginosa MTCC 2488 assessed as growth inhibition measured after overnight incubation by broth dilution method; type: functional
HCT-116 = experiment: Antitumor activity against human HCT116 cells assessed as cell growth at 0.1 uM; type: functional; details: read-out: Activity
SF-539 = experiment: Antitumor activity against human SF539 cells assessed as cell growth at 0.1 uM; type: functional; details: read-out: Activity
TK-10 = experiment: Antitumor activity against human TK10 cells assessed as cell growth at 0.1 uM; type: functional; details: read-out: Activity
IGROV-1 = experiment: Antitumor activity against human IGROV1 cells assessed as cell growth at 0.1 uM; type: functional; details: read-out: Activity
HOP-62 = experiment: Antitumor activity against human HOP62 cells assessed as cell growth at 0.1 uM; type: functional; details: read-out: Activity
Malme-3M = experiment: Antitumor activity against human MALME-3M cells assessed as cell growth at 0.1 uM; type: functional; details: read-out: Activity
Staphylococcus aureus = experiment: Antimicrobial activity against Staphylococcus aureus MTCC 96 assessed as growth inhibition measured after overnight incubation by broth dilution method; type: functional
[1] = Antitumor activity against human HCC2998 cells assessed as cell growth at 0.1 uM; type: functional; details: HCC 2998, read-out: Activity
BT-549 = experiment: Antitumor activity against human BT549 cells assessed as cell growth at 0.1 uM; type: functional; details: read-out: Activity
U-251 = experiment: Antitumor activity against human U251 cells assessed as cell growth at 0.1 uM; type: functional; details: read-out: Activity
SR = experiment: Antitumor activity against human SR cells assessed as cell growth at 0.1 uM; type: functional; details: read-out: Activity
SK-MEL-2 = experiment: cells; details: Homo sapiens, SK-MEL-2, read-out: Activity
Description: Antitumor activity against human SK-MEL-2 cells assessed as cell growth at 0.1 uM

NCI/ADR-RES = experiment: Antitumor activity against human NCI/ADR-RES cells assessed as cell growth at 0.1 uM; type: functional; details: read-out: Activity
OVCAR-5 = experiment: Antitumor activity against human OVCAR5 cells assessed as cell growth at 0.1 uM; type: functional; details: read-out: Activity
Streptococcus pyogenes = experiment: Antimicrobial activity against Streptococcus pyogenes MTCC 442 assessed as growth inhibition measured after overnight incubation by broth dilution method; type: functional
HCT-15 = experiment: Antitumor activity against human HCT15 cells assessed as cell growth at 0.1 uM; type: functional; details: read-out: Activity
RXF 393 = experiment: Antitumor activity against human RXF393 cells assessed as cell growth at 0.1 uM; type: functional; details: read-out: Activity
OVCAR-8 = experiment: Antitumor activity against human OVCAR8 cells assessed as cell growth at 0.1 uM; type: functional; details: read-out: Activity
NCI-H23 = experiment: Antitumor activity against human NCI-H23 cells assessed as cell growth at 0.1 uM; type: functional; details: read-out: Activity
LOX IMVI = experiment: Antitumor activity against human LOXIMVI cells assessed as cell growth at 0.1 uM; type: functional; details: read-out: Activity
UACC-257 = experiment: Antitumor activity against human UACC257 cells assessed as cell growth at 0.1 uM; type: functional; details: read-out: Activity
HT-29 = experiment: Antitumor activity against human HT-29 cells assessed as cell growth at 0.1 uM; type: functional; details: read-out: Activity
DU-145 = experiment: Antitumor activity against human DU145 cells assessed as cell growth at 0.1 uM; type: functional; details: read-out: Activity
Aspergillus clavatus = experiment: Antimicrobial activity against Aspergillus clavatus MTCC 1323 assessed as growth inhibition measured after overnight incubation by broth dilution method; type: functional
[2] = Antitumor activity against human Hs 578T cells assessed as cell growth at 0.1 uM; type: functional; details: read-out: Activity
[3] = Antitumor activity against human EKVX cells assessed as cell growth at 0.1 uM; type: functional; details: read-out: Activity
[4] = tested on: Mycobacterium tuberculosis; experiment: Antitubercular activity against Mycobacterium tuberculosis H37Rv assessed as growth inhibition after 12 to 28 days by L.J. agar MIC method; type: functional; details: for MIC: Mycobacterium tuberculosis, H37Rv
K562 = experiment: Antitumor activity against human K562 cells assessed as cell growth at 0.1 uM; type: functional; details: read-out: Activity

Compound: O=C(CSc1nnc(-c2cccnc2SCc2ccccc2)o1)Nc1nc(Cl)cc(Cl)n1
- growth at 0.1 µM (NCI-H522): 83.1%
- MIC (Aspergillus niger): 500 µg/mL (≈ 989 µM)
- growth at 0.1 µM (SNB-19): 106%
- growth at 0.1 µM (M14): 92%
- growth at 0.1 µM (CCRF-CEM): 101%
- growth at 0.1 µM (SK-MEL-5): 101%
- growth at 0.1 µM (RPMI-8226): 100%
- growth at 0.1 µM (HL-60): 98.3%
- growth at 0.1 µM (A549): 104%
- MIC (Escherichia coli): 200 µg/mL (≈ 396 µM)
- growth at 0.1 µM (T47D): 98.5%
- growth at 0.1 µM (PC-3): 94.5%
- growth at 0.1 µM (SW-620): 103%
- growth at 0.1 µM (SK-MEL-28): 113%
- growth at 0.1 µM (NCI-H226): 83.7%
- growth at 0.1 µM (SN12C): 103%
- growth at 0.1 µM (MCF7): 92%
- growth at 0.1 µM (SF-295): 96.8%
- MIC (Candida albicans): 1000 µg/mL (≈ 1980 µM)
- growth at 0.1 µM (UO-31): 67.7%
- growth at 0.1 µM (SK-OV-3): 110%
- growth at 0.1 µM (MDA-MB-468): 98.8%
- growth at 0.1 µM (MOLT-4): 95.7%
- growth at 0.1 µM (MDA-MB-231): 92%
- growth at 0.1 µM (SNB-75): 85.7%
- growth at 0.1 µM (NCI-H460): 105%
- growth at 0.1 µM (SF-268): 99.8%
- growth at 0.1 µM (UACC-62): 101%
- growth at 0.1 µM (A498): 112%
- growth at 0.1 µM (OVCAR-4): 106%
- growth at 0.1 µM (OVCAR-3): 106%
- growth at 0.1 µM (ACHN): 103%
- growth at 0.1 µM (MDA-MB-435): 105%
- growth at 0.1 µM (CAKI-1): 95.8%
- MIC (Pseudomonas aeruginosa): 200 µg/mL (≈ 396 µM)
- growth at 0.1 µM (HCT-116): 97.2%
- growth at 0.1 µM (SF-539): 101%
- growth at 0.1 µM (TK-10): 109%
- growth at 0.1 µM (IGROV-1): 105%
- growth at 0.1 µM (HOP-62): 90.6%
- growth at 0.1 µM (Malme-3M): 94%
- MIC (Staphylococcus aureus): 250 µg/mL (≈ 495 µM)
- growth at 0.1 µM [1]: 103%
- growth at 0.1 µM (BT-549): 102%
- growth at 0.1 µM (U-251): 106%
- growth at 0.1 µM (SR): 101%
- growth at 0.1 µM (SK-MEL-2): 102%
- growth at 0.1 µM (NCI/ADR-RES): 101%
- growth at 0.1 µM (OVCAR-5): 106%
- MIC (Streptococcus pyogenes): 200 µg/mL (≈ 396 µM)
- growth at 0.1 µM (HCT-15): 106%
- growth at 0.1 µM (RXF 393): 105%
- growth at 0.1 µM (OVCAR-8): 102%
- growth at 0.1 µM (NCI-H23): 102%
- growth at 0.1 µM (LOX IMVI): 94.9%
- growth at 0.1 µM (UACC-257): 113%
- growth at 0.1 µM (HT-29): 110%
- growth at 0.1 µM (DU-145): 107%
- MIC (Aspergillus clavatus): 500 µg/mL (≈ 989 µM)
- growth at 0.1 µM [2]: 97.4%
- growth at 0.1 µM [3]: 103%
- growth inhibition (GI) [4]: 98%
- MIC [4]: 100 µg/mL (≈ 198 µM)
- growth at 0.1 µM (K562): 92.8%

Compound: O=C(CSc1nnc(-c2cccnc2SCc2ccccc2)o1)Nn1cnnc1
- MIC (Aspergillus niger): 1000 µg/mL (≈ 2350 µM)
- MIC (Escherichia coli): 100 µg/mL (≈ 235 µM)
- MIC (Candida albicans): 100 µg/mL (≈ 235 µM)
- MIC (Pseudomonas aeruginosa): 125 µg/mL (≈ 294 µM)
- MIC (Staphylococcus aureus): 250 µg/mL (≈ 588 µM)
- MIC (Streptococcus pyogenes): 125 µg/mL (≈ 294 µM)
- MIC (Aspergillus clavatus): 500 µg/mL (≈ 1180 µM)
- growth inhibition (GI) [4]: 99%
- MIC [4]: 25 µg/mL (≈ 58.8 µM)
